Experimental data published in patent US20110190309A1, “PHARMACEUTICAL PRODUCT COMPRISING A […] RECEPTOR ANTAGONIST AND A Beta2-ADRENOCEPTOR AGONIST” (priority 2008, published 2011).
“And” between values parts separate entries of the source, which are not always exact repeats. Identical values can stand only once. Counter-ions that a name gives are not always drawn. Like-named read-outs stand apart in the source and are kept apart here.

Assays:
[1] = molecular target: T1, β2 (Homo sapiens, UniProt P07550); test: Adrenergic β2 mediated cAMP production in H292 cells (AlphaScreen); format: cell-based; conditions: Intrinsic Activity as a fraction relative to the maximum activity of formoterol
T1 construct: endogenous in cells; host or cells: H292 cells
Description: H292 cells were grown in 225 cm2 flasks incubator at 37° C., 5% CO2 in RPMI medium containing, 10% (v/v) FBS (foetal bovine serum) and 2 mM L-glutamine.
Adherent H292 cells were removed from tissue culture flasks by treatment with Accutase™ cell detachment solution for 15 minutes. Flasks were incubated for 15 minutes in a humidified incubator at 37° C., 5% CO2. Detached cells were re-suspended in RPMI media (containing 10% (v/v) FBS and 2 mM L-glutamine) at 0.05×10^6 cells per mL. 5000 cells in 100 μL were added to each well of a tissue-culture-treated 96-well plate and the cells incubated overnight in a humidified incubator at 37° C., 5% CO2. The culture media was removed and cells were washed twice with 100 μL assay buffer and replaced with 50 μL assay buffer (HBSS solution containing 10 mM HEPES pH7.4 and 5 mM glucose). Cells were rested at room temperature for 20 minutes after which time 25 μL of rolipram (1.2 mM made up in assay buffer containing 2.4% (v/v) dimethylsulphoxide) was added. Cells were incubated with rolipram for 10 minutes after which time Compound A was added and the cells were incubated for 60 minutes at room temperature. The final rolipram concentration in the assay was 300 μM and final vehicle concentration was 1.6% (v/v) dimethylsulphoxide. The reaction was stopped by removing supernatants, washing once with 100 μL assay buffer and replacing with 50 μL lysis buffer. The cell monolayer was frozen at −80° C. for 30 minutes (or overnight).
The concentration of cAMP (cyclic adenosine monophosphate) in the cell lysate was determined using AlphaScreen™ methodology. […] The AlphaScreen™ signal was measured using an EnVision spectrophotometer (Perkin-Elmer Inc.) with the recommended manufacturer's settings. cAMP concentrations were determined by reference to a calibration curve determined in the same experiment using standard cAMP concentrations. […] Intrinsic Activity was expressed as a fraction relative to the maximum activity determined for formoterol in each experiment.

[2] = molecular target: T2, human muscarinic receptors (M3) (Homo sapiens, UniProt P20309); test: Muscarinic Receptor Radioligand Binding Assay ([3H]-NMS); conditions: human M3 membranes
T2 construct: purchased
Description: The inhibitory effects of compounds of the muscarinic antagonists were determined by a Muscarinic Receptor Radioligand Binding Assay. Radioligand binding studies utilising [^3H]-N-methyl scopolamine ([^3H]-NMS) and commercially available cell membranes expressing the human muscarinic receptors (M2 or M3) were used to assess the affinity of muscarinic antagonists for M2 and M3 receptors. Membranes in TRIS buffer were incubated in 96-well plates with [^3H]-NMS and M3 antagonist at various concentrations for 3 hours. Membranes and bound radioligand were then harvested by filtration and allowed to dry overnight. Scintillation fluid was then added and the bound radioligand counted using a Can berra Packard Topcount scintillation counter

[3] = Gravimetric Vapour Sorption (GVS); format: physicochemical; conditions: at 80% RH
Description: Gravimetric Vapour Sorption (GVS) profiles were measured using a Surface Measurements Systems Dynamic Vapour Sorption DVS-1, or DVS Advantage GVS instruments. The solid sample ca. 1-5 mg was placed into a glass or wire mesh vessel and the weight of the sample was recorded during a dual cycle step method (40 to 90 to 0 to 90 to 0% relative humidity (RH), in steps of 10% RH).

[4] = system: guinea pig trachea; test: Bronchodilator activity in the guinea pig isolated tracheal ring preparation; conditions: methacholine 1 μM, 60 min, mean±s.e.mean
Description: Guinea pigs (300-500 g) were killed by cervical dislocation and the trachea was isolated. The trachea was cut into segments 2-3 cartilage rings in width and suspended in 10 ml organ baths in modified Krebs' solution (mM; NaCl, 90; NaHCO3, 45; KCl, 5; MgSO4.7H2O, 0.5; Na2HPO4.2H2O, 1; CaCl2, 2.25; glucose, 10; pH 7.4 gassed with 5% CO2, 95% O2 at 37° C.). The tracheal rings were attached to an isometric force transducer for the measurement of isometric tension. The tissues were washed and a force of 1 g was applied to each tissue. The rings were contracted with methacholine (1 μM). Once the contraction had reached a plateau, vehicle (0.01% DMSO in distilled H2O), indacaterol (10 nM), N-[2-(Diethylamino)ethyl]-N-(2-{[2-(4-hydroxy-2-oxo-2,3-dihydro-1,3-benzothiazol-7-yl)ethyl]amino}ethyl)-3-[2-(1-naphthyl)ethoxy]propanamide dihydrobromide (10 nM), N-Cyclohexyl-N^3-[2-(3-fluorophenyl)ethyl]-N-(2-{[2-(4-hydroxy-2-oxo-2,3-dihydro-1,3-benzothiazol-7-yl)ethyl]amino}ethyl)-(3-alaninamide di-D-mandelate salt (1 nM), (R)-3-(1-Phenyl-cycloheptanecarbonyloxy)-1-(pyridin-2-ylcarbamoylmethyl)-1-azonia-bicyclo[2.2.2]octane bromide (1 nM), a combination of (R)-3-(1-Phenyl-cycloheptanecarbonyloxy)-1-(pyridin-2-ylcarbamoylmethyl)-1-azonia-bicyclo[2.2.2]octane bromide (1 nM) and indacaterol (10 nM), a combination of N-[2-(Diethylamino)ethyl]-N-(2-{[2-(4-hydroxy-2-oxo-2,3-dihydro-1,3-benzothiazol-7-yl)ethyl]amino}ethyl)-3-[2-(1-naphthyl)ethoxy]propanamide dihydrobromide (10 nM) and (R)-3-(1-Phenyl-cycloheptanecarbonyloxy)-1-(pyridin-2-ylcarbamoylmethyl)-1-azonia-bicyclo[2.2.2]octane bromide (1 nM) and, or a combination of N-Cyclohexyl-N^3-[2-(3-fluorophenyl)ethyl]-N-(2-{[2-(4-hydroxy-2-oxo-2,3-dihydro-1,3-benzothiazol-7-yl)ethyl]amino}ethyl)-β-alaninamide di-D-mandelate salt (1 nM) and (R)-3-(1-Phenyl-cycloheptanecarbonyloxy)-1-(pyridin-2-ylcarbamoylmethyl)-1-azonia-bicyclo[2.2.2]octane bromide (1 nM) was added and the tissue left for 60 min. The tension was measured in each ring at 60 min following compound addition and was expressed as a % relaxation of the constriction to methacholine (1 μM) (mean±s.e.mean). Data were collected using the Chart 4 software (ADInstruments, Charlgrove, UK).

[5] = class symbols of M3 Binding IC50, read-out: M3 pIC50 (converted)

T2 sequence (P20309 whole entry): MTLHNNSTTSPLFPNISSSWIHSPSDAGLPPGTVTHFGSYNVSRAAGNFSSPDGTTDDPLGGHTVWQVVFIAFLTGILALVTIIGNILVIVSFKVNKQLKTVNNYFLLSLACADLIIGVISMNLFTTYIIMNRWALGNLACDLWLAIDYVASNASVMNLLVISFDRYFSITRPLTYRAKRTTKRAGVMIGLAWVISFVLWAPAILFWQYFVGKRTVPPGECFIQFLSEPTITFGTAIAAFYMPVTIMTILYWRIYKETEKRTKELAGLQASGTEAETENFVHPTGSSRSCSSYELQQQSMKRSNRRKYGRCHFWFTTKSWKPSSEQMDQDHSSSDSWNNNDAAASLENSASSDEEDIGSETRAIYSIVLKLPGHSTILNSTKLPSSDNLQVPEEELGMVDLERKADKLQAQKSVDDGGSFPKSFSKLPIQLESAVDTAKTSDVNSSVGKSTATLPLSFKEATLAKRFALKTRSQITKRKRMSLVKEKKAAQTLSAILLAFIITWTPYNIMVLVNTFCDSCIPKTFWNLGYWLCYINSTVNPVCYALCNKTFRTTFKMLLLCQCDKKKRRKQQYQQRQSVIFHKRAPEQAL
T1 sequence (P07550 whole entry): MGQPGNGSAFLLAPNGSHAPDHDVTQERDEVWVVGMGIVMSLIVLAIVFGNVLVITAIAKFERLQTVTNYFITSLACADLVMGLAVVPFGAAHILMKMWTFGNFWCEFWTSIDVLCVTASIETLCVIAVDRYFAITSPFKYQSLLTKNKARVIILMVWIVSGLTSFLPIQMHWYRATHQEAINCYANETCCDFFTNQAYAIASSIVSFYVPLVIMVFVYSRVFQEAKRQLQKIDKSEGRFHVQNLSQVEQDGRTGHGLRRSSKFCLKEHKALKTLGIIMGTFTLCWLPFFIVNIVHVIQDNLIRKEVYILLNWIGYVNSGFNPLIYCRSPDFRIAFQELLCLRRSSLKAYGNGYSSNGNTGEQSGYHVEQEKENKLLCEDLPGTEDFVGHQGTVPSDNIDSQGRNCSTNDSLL

Compound | GVS weight increase [3] | IC50 [2, 5] [nM] | further results
CCN(CC)CCN(CCNCCc1ccc(O)c2[nH]c(=O)sc12)C(=O)CCOCCc1cccc(Cl)c1 [BA2, N-[2-(Diethylamino)ethyl]-N-(2-{[2-(4-hydroxy-2-oxo-2,3-dihydro-1,3-benzothiazol-7-yl)ethyl]amino}ethyl)-3-[2-(3-chlorophenyl)ethoxy]propanamide dihydrobromide] |  |  | β2 Int Act [1]: 0.7
O=C(C[N+]12CCC(CC1)[C@@H](OC(=O)C1(c3ccccc3)CCCCCC1)C2)Nc1cnccn1.[Br-] [Example 1, (R)-3-(1-Phenyl-cycloheptanecarbonyloxy)-1-(pyrazin-2-ylcarbamoylmethyl)-1-azonia-bicyclo[2.2.2]octane bromide] | 3 % w/w |  | IC50 ([2]; read-out: M3 pIC50 (converted)): 0.0794 nM
O=C(C[N+]12CCC(CC1)[C@@H](OC(=O)C1(c3ccccc3)CCCCCC1)C2)Nc1cnccn1.[Cl-] [Example 2, (R)-3-(1-Phenyl-cycloheptanecarbonyloxy)-1-(pyrazin-2-ylcarbamoylmethyl)-1-azonia-bicyclo[2.2.2]octane chloride] | 9 % w/w |  | 
O=C(C[N+]12CCC(CC1)[C@@H](OC(=O)C1(c3ccccc3)CCCCCC1)C2)Nc1ccccn1.[Cl-] [Example 3, (R)-3-(1-Phenyl-cycloheptanecarbonyloxy)-1-(pyridin-2-ylcarbamoylmethyl)-1-azonia-bicyclo[2.2.2]octane chloride] | negligible | < 2 | 
O=C(C[N+]12CCC(CC1)[C@@H](OC(=O)C1(c3ccccc3)CCCCCC1)C2)Nc1ccccn1.[Br-] [Example 4, (R)-3-(1-Phenyl-cycloheptanecarbonyloxy)-1-(pyridin-2-ylcarbamoylmethyl)-1-azonia-bicyclo[2.2.2]octane bromide] | negligible |  | percentage relaxation of the constriction to methacholine ([4]; 1 nM, listed as Compound Z): 9±9.4%; percentage relaxation of the constriction to methacholine ([4]; 1 nM, listed as compound Z): 9±4.3% and 5±1.8%
O=C(C[N+]12CCC(CC1)[C@@H](OC(=O)C1(c3ccccc3)CCCCCC1)C2)Nc1cnccn1 [Example 5, (R)-3-(1-Phenyl-cycloheptanecarbonyloxy)-1-(pyrazin-2-ylcarbamoylmethyl)-1-azonia-bicyclo[2.2.2]octane 1-hydroxy-naphthalene-2-sulfonate] | ~0.3 % w/w |  | 
O=C(C[N+]12CCC(CC1)[C@@H](OC(=O)C1(c3ccccc3)CCCCCC1)C2)Nc1cnccn1 [Example 6, (R)-3-(1-Phenyl-cycloheptanecarbonyloxy)-1-(pyrazin-2-ylcarbamoylmethyl)-1-azonia-bicyclo[2.2.2]octane 2,5-dichloro-benzenesulfonate] | ~0.2 % w/w |  | 
O=C(C[N+]12CCC(CC1)[C@@H](OC(=O)C1(c3ccccc3)CCCCCC1)C2)Nc1cnccn1 [Example 7, (R)-3-(1-Phenyl-cycloheptanecarbonyloxy)-1-(pyrazin-2-ylcarbamoylmethyl)-1-azonia-bicyclo[2.2.2]octane hemi-naphthalene-1,5-disulfonate] | 1.6 % w/w |  | 
O=C(C[N+]12CCC(CC1)[C@@H](OC(=O)C1(c3cccc(F)c3)CCCCCC1)C2)Nc1cnccn1 [Example 8, (R)-3-[1-(3-Fluoro-phenyl)-cycloheptanecarbonyloxy]-1-(pyrazin-2-ylcarbamoylmethyl)-1-azonia-bicyclo[2.2.2]octane bromide] |  | < 2 | 
O=C(C[N+]12CCC(CC1)[C@@H](OC(=O)C1(c3cccc(F)c3)CCCCCC1)C2)Nc1ccon1 [Example 9, (R)-3-[1-(3-Fluoro-phenyl)-cycloheptanecarbonyloxy]-1-(isoxazol-3-ylcarbamoylmethyl)-1-azonia-bicyclo[2.2.2]octane bromide] |  | < 2 | 
O=C(C[N+]12CCC(CC1)[C@@H](OC(=O)C1(c3ccccc3)CCCCCC1)C2)Nc1ccc(F)cn1 [Example 10, (R)-1-[(5-Fluoro-pyridin-2-ylcarbamoyl)-methyl]-3-(1-phenyl-cycloheptanecarbonyloxy)-1-azonia-bicyclo[2.2.2]octane chloride] |  | < 2 | 
Cc1cc(NC(=O)C[N+]23CCC(CC2)[C@@H](OC(=O)C2(c4ccccc4)CCCCCC2)C3)ccn1 [Example 11, (R)-1-[(2-Methyl-pyridin-4-ylcarbamoyl)-methyl]-3-(1-phenyl-cycloheptanecarbonyloxy)-1-azonia-bicyclo[2.2.2]octane chloride] |  | < 2 | 
O=C(C[N+]12CCC(CC1)[C@@H](OC(=O)C1(c3ccccc3)CCCCCC1)C2)Nc1cccnc1 [Example 12, (R)-3-(1-Phenyl-cycloheptanecarbonyloxy)-1-(pyridin-3-ylcarbamoylmethyl)-1-azonia-bicyclo[2.2.2]octane chloride] |  | < 2 | 
O=C(C[N+]12CCC(CC1)[C@@H](OC(=O)C1(c3ccccc3)CCCCCC1)C2)Nc1cccnn1 [Example 13, (R)-3-(1-Phenyl-cycloheptanecarbonyloxy)-1-(pyridazin-3-ylcarbamoylmethyl)-1-azonia-bicyclo[2.2.2]octane bromide] |  | < 2 | 
O=C(C[N+]12CCC(CC1)[C@@H](OC(=O)C1(c3ccccc3)CCCCCC1)C2)Nc1ccccn1 [Example 14, (R)-3-(1-Phenyl-cycloheptanecarbonyloxy)-1-(pyridin-2-ylcarbamoylmethyl)-1-azonia-bicyclo[2.2.2]octane hemi-naphthalene-1,5-disulfonate] | 1 % w/w |  | 
CCc1cc2c(cc1CC)CC(NC[C@H](O)c1ccc(O)c3[nH]c(=O)ccc13)C2 [indacaterol, reference compound] |  |  | percentage relaxation of the constriction to methacholine ([4]; 10 nM): 24±6.9%
N-Cyclohexyl-N^3-[2-(3-fluorophenyl)ethyl]-N-(2-{[2-(4-hydroxy-2-oxo-2,3-dihydro-1,3-benzothiazol-7-yl)ethyl]amino}ethyl)-β-alaninamide di-D-mandelate [compound W] |  |  | percentage relaxation of the constriction to methacholine ([4]; 1 nM): 23±10%
